Assay results taken from patent US20160067246A1, “USE OF PHOSPHODIESTERASE 5A INHIBITORS FOR THE TREATMENT OF MUSCULAR DYSTROPHY” (CEDARS-SINAI MEDICAL CENTER, priority 2013, published 2016).

Tested on: boys with Duchenne muscular dystrophy (DMD)
Assay: Functional sympatholysis (LBNP, NIR spectroscopy, rest vs handgrip) with PDE5 inhibition in DMD
Type: in vivo, human
Details: DMD
Protocol: Forearm muscle oxygenation was measured with near-infrared (NIR) spectroscopy, as previously described.^4B Briefly, optodes were placed over the belly of the flexor digitorum profundus, the main muscle recruited during handgrip. The optodes were housed in a customized flexible rubber casing, ensuring a fixed and invariant position of the optodes relative to each other, and was secured to the skin with adhesive. The optodes were covered with an optically dense, black vinyl sheet, to minimize interference from external light or loss of NIR transmitted light. The forearm was wrapped with an elastic bandage to minimize movement of the optodes.
Before each experiment, absorption and scattering coefficients were calibrated against an external standard. After each experiment, a cuff was inflated on the upper arm to supra-systolic pressure of 200 mmHg to establish the total labile signal (TLS, the difference between the baseline and nadir in muscle tissue oxygenation). Changes in forearm tissue oxygenation were expressed as a percentage of TLS.
Handgrip exercise was performed with a dynamometer (Smedley Hand Dynamometer modified by Stoelting). To determine maximal voluntary contraction (MVC), each subject was asked to grip the dynamometer as hard as possible. […] Subjects performed intermittent isometric handgrip (20 handgrips per minute, 50% duty cycle) at 20% MVC for 7 minutes.
The subjects lower body was enclosed in a negative pressure chamber to the level of the iliac crest as previously described.^9B The pressure of the chamber was measured by a Statham transducer (Gould Inc.). Lower body negative pressure (LBNP) at −20 mmHg simulates mild orthostatic stress (that is, transition from the supine to the seated position). This technique mainly unloads the cardiopulmonary baroreceptors, producing highly reproducible reflex increases in sympathetic vasoconstrictor drive to the skeletal muscle vasculature without changing systemic blood pressure.^9B
The subjects' lower body was enclosed in a negative pressure chamber to the level of the iliac crest as previously described. The pressure in the chamber was measured by a Statham transducer (Gould Inc.). Lower body negative pressure (LBNP) at −20 to −30 mmHg simulates mild orthostatic stress caused by transition from the supine to the seated position. This technique mainly unloads the low-pressure cardiopulmonary baroreceptors, producing highly reproducible reflex increases in sympathetic vasoconstrictor drive to the skeletal muscle vasculature without changing systemic blood pressure. To measure exercise-induced attenuation of reflex vasoconstriction (i.e., functional sympatholysis), the LBNP was (i) applied at rest, and then (ii) superimposed on mild rhythmic handgrip at 20% MVC. Reflex vasoconstriction was measured as the LBNP-induced decrease in forearm muscle oxygenation by NIR spectroscopy. Using the pressure inside the LBNP chamber as a trigger, the Powerlab software was programed to mean the HbO2+MbO2 signal for 20 seconds before the onset of LBNP and for 20 seconds before the offset of LBNP; the difference between these mean values was taken as the LBNP-induced change in forearm muscle tissue oxygenation (20). Blood pressure, heart rate, and handgrip force were also recorded in response to 2 minutes of LBNP applied at rest and during the third to fifth minutes of the 7-minute exercise protocol.
Patients received 0.5 mg/kg of oral sildenafil or tadalafil on day 1, followed by 1.0 mg/kg of sildenafil or tadalafil on day 2. Patients then crossed over 2 weeks later for the opposite drug. Experiments were performed 1 hour (sildenafil) or 3 hours (tadalafil) after oral treatment to match the experiment with the peak blood level. Patients were queried about potential side-effects throughout the study visit. […]

[1] = 0.5 mg/kg oral, analysis of 10 of the 12 boys
[2] = 0.5 mg/kg oral, analysis using all 12 boys
[3] = 1.0 mg/kg oral, analysis of 10 of the 12 boys
[4] = 1.0 mg/kg oral, analysis using all 12 boys

## CN1CC(=O)N2[C@H](c3ccc4c(c3)OCO4)c3[nH]c4ccccc4c3C[C@@H]2C1=O [tadalafil]
[1]
  attenuation of the reflex decrease in muscle oxygenation during handgrip: 45±8%
  LBNP-induced ΔHbO2+MbO2 (% TLS) at rest: −20±2%
  LBNP-induced ΔHbO2+MbO2 (% TLS) during handgrip: −11±1%
0.5 mg/kg oral, analysis using all 12 boys (NIR in 10)
  attenuation of the reflex decrease in muscle oxygenation during handgrip: 57±16%
[2]
  LBNP-induced ΔHbO2+MbO2 (% TLS) at rest: −20±2%
  LBNP-induced ΔHbO2+MbO2 (% TLS) during handgrip: −9±3%
[3]
  attenuation of the reflex decrease in muscle oxygenation during handgrip: 63±5%
  LBNP-induced ΔHbO2+MbO2 (% TLS) at rest: −17±1%
  LBNP-induced ΔHbO2+MbO2 (% TLS) during handgrip: −7±1%
1.0 mg/kg oral, analysis using all 12 boys (NIR in 10)
  attenuation of the reflex decrease in muscle oxygenation during handgrip: 80±11%
[4]
  LBNP-induced ΔHbO2+MbO2 (% TLS) at rest: −16±2%
  LBNP-induced ΔHbO2+MbO2 (% TLS) during handgrip: −4±2%
